Article PMC4859609, “Inhibition and Larvicidal Activity of Phenylpropanoids from Piper sarmentosum on Acetylcholinesterase against Mosquito Vectors and Their Binding Mode of Interaction” (PLoS ONE, 2016)

Assays:
[1] = tested on: Aedes aegypti larvae; test: Larval bioassay (WHO larvicidal procedure), late 3rd or early 4th larvae; details: 24 hours; for dosage that can cause 50% mortality: larvae
Procedure: (§1) All tested insects used for the experiments were obtained from colonies cultured in the laboratory at 27 ± 2°C and 65 ± 5% relative humidity. To determine the susceptibility, three species of adult mosquitoes and larvae of Ae. aegypti, Ae. albopictus and Cx. quinquefasciatus were used as sample and were measured over a period of 1 year (2012–2013) in this study. Each different species was categorized and reared in laboratory as laboratory strains. Ae. aegypti, Ae. albopictus and Cx. quinquefasciatus were collected from cemetery near the Malaysia International Airport KLI, 2011. Mosquito larvae were placed in plastic containers located in cages (23cm x 23cm x 23cm) at laboratory condition with a photoperiod of 13 hours of daylight and 11 hours of darkness for emergence.
(§2) The larval bioassay was performed on late 3rd or early 4th larvae of Ae. aegypti, Ae. albopictus and Cx. quinquefasciatus according to the WHO larvicidal activity standard procedure. 15 mg of asaricin 1, isoasarone 2 and trans-asarone 3 were separately dissolved in 1 mL of acetone as stock solution and several concentrations (4 to 20 μg/mL) were prepared through serial dilution by mixing specific amount of stock solution with 250mL distilled water. Twenty five larvae of Ae. aegypti, Ae. albopictus and Cx. quinquefasciatus were separately introduced into the plastic cups containing appropriate concentrations of asaricin 1, isoasarone 2 and trans-asarone 3. Control was only treated with 1 mL acetone added to 250mL distilled water. Mortality of the tested larvae was recorded at the end of 24 hours. Each treatment was replicated four times.
(§3) %larvae mortality=Number of dead larvae/Total number of introduced larvae×100%

[2] = tested on: Aedes albopictus larvae; test: as above; details: 24 hours; for dosage that can cause 50% mortality: larvae
Procedure: as §1, §2, §3

[3] = tested on: Culex quinquefasciatus larvae; test: as above; details: for mortality at 9.3 µg/mL: Culex quinquefasciatus, 24 h, read-out: % larvae mortality; for dosage that can cause 50% mortality: larvae; for dosage that can cause 50% mortality / % larvae mortality: 24 hours; for % larvae mortality: ≤ 15 μg/mL
Procedure: as §1, §2, §3

[4] = tested on: blood-starved female Ae. aegypti; test: Repellent activity (WHO procedure, treated forearm in cage); format: in vivo, Aedes aegypti; details: for % repellency: 300 μg/mL
Procedure: (§4) This study was carried out according to the method described by WHO standard procedure. Three-day-old blood-starved female of Ae.aegypti, Ae. albopictus and Cx. quinquefasciatus (100 each) were kept in a net cage (23 cm × 23 cm × 23 cm). Hands that had no contact with lotions, perfumes or perfumed soaps were exposed to the mosquito cage. Only 25 cm^2 dorsal side of the skin on each arm was exposed and the remaining area covered by rubber gloves. The tested substance was applied at several dosages, separately in the exposed area of the forearm. Acetone was served as control. The timing of the test depended on whether the tested mosquitoes were day or night biters. Ae.aegypti and Ae. albopictus were tested from 6 am to 9 am hours, while Cx. quinquefasciatus was tested from […] to 7 pm hours. Both control and treated arms were introduced simultaneously into the mosquito cage, and followed by gentle tapping on the sides of the experimental cages to activate the mosquitoes. Each test concentration was repeated four times. The volunteers conducted test for each concentration by inserting the treated and control arms into the same cage for one minute and repeated this action every five minutes. The mosquitoes that landed on the hand were recorded and then shaken off before imbibing any blood. The percentage of repellency was calculated by the following formula, %Repellency=[Ta−Tb/Ta]×100%,where
(§5) Ta: the number of mosquitoes in the control group.
(§6) Tb: the number of mosquitoes in the treated group.

[5] = tested on: blood-starved female Ae. albopictus; test: as above; format: in vivo, Aedes albopictus; details: for % repellency: 300 μg/mL
Procedure: as §4, §5, §6

[6] = tested on: blood-starved female Cx. quinquefasciatus; test: as above; format: in vivo, Culex quinquefasciatus
Procedure: as §4, §5, §6

[7] = target: AChE extracted from Ae. aegypti larvae (Aedes aegypti, UniProt A4GND7); test: Acetylcholinesterase inhibition assay (in vitro, modified Ellman); format: biochemical
Procedure: (§7) For this experiments, the larvae were removed and homogenized at 0°C (keeping the homogenized mixture in plastic tube covered with ice) in 0.05 M-phosphate buffer, pH7.5 (KH2PO4-NaOH) (Merck, USA) by using a glass homogenizer with a polytetrafluoroethylene (PTFE) pestle (5%, w/v, homogenate). The homogenates were centrifuged for 20 min at 5°C and 16000 rpm. These supernatants were collected with pipette and kept inside the ice for studying the AChE inhibition biochemical assay.
(§8) To determine the IC50 values, procedures from Ellman et al., 1961 were modified and applied. Electronic multichannel pipette (Eppendorf, USA) was used to transfer exact 10 μL of enzyme solution to each well of a 96-well microtiter plate further mixed with 20 μL of tested compounds in solution form and 150 μL of cold phosphate buffer which were kept in refrigerator 1–4°C. The assay microtiter plates were incubated at 25°C for 10 min. Inhibitors were dissolved in DMSO (Merck, USA) in several concentration and stocks diluted to give a final concentration of 0.1% DMSO (v/v) were added into test well in separated rows. This was followed by adding 20 μL of acetylthiocholine iodide (ACTHI) (Sigma-Aldrich, USA) (0.4 mM) and DTNB (Sigma-Aldrich, USA) (0.3 mM) to enzyme solution to observe the reaction. Yellowish or colorless solution was observed during reaction for 30 minutes at room temperature. Changes in absorbance were recorded by a microplate readers (Synergy H1 Hybrid Multi-Mode Microplate Reader, USA) at 412 nm. Enzyme concentrations used were within the linear range of their toxicity activity.
(§9) %Inhibition=[Acon−Asam/Acon]×100%,where
(§10) Acon: the absorbance of the control
(§11) Asam: the absorbance of the test sample.
(§12) The IC50 was calculated by log-probit analysis using Polo Plus program. Another set of supernatant was loaded with 20 μL of ACTHI and DTNB solution only which served as control. The mean IC50 significant values were statistically determined by comparison of confident interval.

[8] = target: AChE extracted from Ae. albopictus larvae (Aedes albopictus, UniProt Q2PGF2); test: as above; format: biochemical
Procedure: as §7, §8, §9, §10, §11, §12

[9] = target: AChE extracted from Cx. quinquefasciatus larvae (Culex quinquefasciatus, UniProt Q867X2); test: as above; format: biochemical
Procedure: as §7, §8, §9, §10, §11, §12

[10] = tested on: Ae. aegypti eggs; test: Ovicidal activity (egg hatching); details: for mortality at 25 µg/mL: read-out: ovicidal activity (% of egg mortality), 25 μg/mL
[11] = tested on: Ae. albopictus eggs; test: Ovicidal activity (egg hatching); details: for mortality at 25 µg/mL: read-out: ovicidal activity (% of egg mortality), 25 μg/mL
[12] = tested on: Cx. quinquefasciatus eggs; test: Ovicidal activity (egg hatching); details: for mortality at 25 µg/mL: read-out: ovicidal activity (% of egg mortality), 25 μg/mL
[13] = tested on: AChE extracted from Cx. quinquefasciatus larvae; test: Acetylcholinesterase inhibition assay (in vitro, modified Ellman); format: biochemical; details: Culex quinquefasciatus; 95% confidence interval in brackets; log-probit
Procedure: as §7, §8, §9, §10, §11, §12

[14] = Aedes albopictus, 48 h, 48 hours
[15] = Culex quinquefasciatus, 48 h, 48 hours
[16] = even at higher dosage of 100 μg/mL

AChE extracted from Cx. quinquefasciatus larvae (Culex quinquefasciatus, UniProt Q867X2), sequence (Q867X2 whole entry): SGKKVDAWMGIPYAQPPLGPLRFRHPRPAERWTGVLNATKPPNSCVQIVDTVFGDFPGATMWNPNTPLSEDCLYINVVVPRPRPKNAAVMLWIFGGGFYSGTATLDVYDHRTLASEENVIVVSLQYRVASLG
AChE extracted from Ae. aegypti larvae, sequence (A4GND7 37-679): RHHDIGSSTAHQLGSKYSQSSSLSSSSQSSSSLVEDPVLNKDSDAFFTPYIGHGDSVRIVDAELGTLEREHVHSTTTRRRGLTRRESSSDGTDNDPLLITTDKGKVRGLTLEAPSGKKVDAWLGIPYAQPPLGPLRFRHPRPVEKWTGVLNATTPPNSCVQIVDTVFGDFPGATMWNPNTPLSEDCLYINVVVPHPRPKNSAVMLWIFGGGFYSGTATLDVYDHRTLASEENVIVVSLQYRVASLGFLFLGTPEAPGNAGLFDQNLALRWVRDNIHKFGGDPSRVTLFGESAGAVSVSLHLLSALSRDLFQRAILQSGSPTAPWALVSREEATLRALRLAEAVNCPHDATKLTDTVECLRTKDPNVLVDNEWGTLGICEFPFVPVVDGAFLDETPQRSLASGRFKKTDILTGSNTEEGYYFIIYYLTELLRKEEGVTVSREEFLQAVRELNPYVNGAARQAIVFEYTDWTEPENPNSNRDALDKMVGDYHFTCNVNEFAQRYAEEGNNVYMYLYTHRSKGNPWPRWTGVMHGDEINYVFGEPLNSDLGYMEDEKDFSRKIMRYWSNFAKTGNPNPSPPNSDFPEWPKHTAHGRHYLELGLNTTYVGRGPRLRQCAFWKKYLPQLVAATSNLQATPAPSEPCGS
AChE extracted from Ae. albopictus larvae, sequence (Q2PGF2 37-680): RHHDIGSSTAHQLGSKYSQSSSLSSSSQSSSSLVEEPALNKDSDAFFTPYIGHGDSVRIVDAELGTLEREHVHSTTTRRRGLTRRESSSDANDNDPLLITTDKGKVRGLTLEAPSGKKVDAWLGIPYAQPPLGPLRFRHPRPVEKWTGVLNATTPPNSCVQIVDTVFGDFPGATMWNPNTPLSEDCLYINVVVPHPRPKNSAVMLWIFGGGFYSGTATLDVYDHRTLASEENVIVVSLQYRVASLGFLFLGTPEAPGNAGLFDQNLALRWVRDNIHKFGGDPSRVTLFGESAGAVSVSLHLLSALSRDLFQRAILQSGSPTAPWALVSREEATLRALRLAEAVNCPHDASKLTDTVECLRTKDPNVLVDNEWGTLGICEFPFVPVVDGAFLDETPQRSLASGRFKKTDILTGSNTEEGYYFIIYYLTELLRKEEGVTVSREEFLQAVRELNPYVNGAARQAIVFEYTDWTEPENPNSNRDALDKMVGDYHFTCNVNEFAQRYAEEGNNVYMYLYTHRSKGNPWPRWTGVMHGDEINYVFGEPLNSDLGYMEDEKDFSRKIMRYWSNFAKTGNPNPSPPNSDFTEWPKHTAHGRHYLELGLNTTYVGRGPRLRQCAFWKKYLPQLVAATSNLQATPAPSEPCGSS

Row | Structure (SMILES) | dosage that can cause 50% mortality [1] [µg/mL] | dosage that can cause 50% mortality [2] [µg/mL] | % larvae mortality ([2]; ≤ 9.3 μg/mL) | mortality at 9.3 µg/mL [3] [%] | dosage that can cause 50% mortality [3] [µg/mL] | % repellency [4] | repellent activity (in words) ([4]; 50 to 150 μg/mL) | % repellency [5] | repellent activity (in words) ([5]; 50 to 150 μg/mL) | repellent activity (in words) ([6]; 50 to 150 μg/mL) | Slope ± S.E of log-probit AChE inhibition curve [7] | Slope ± S.E of log-probit AChE inhibition curve [8] | Slope ± S.E of log-probit AChE inhibition curve [9] | mortality at 25 µg/mL ([10]; Aedes aegypti, 48 h, 48 hours) [%] | mortality at 25 µg/mL [11, 14] [%] | mortality at 25 µg/mL [12, 15] [%] | other results
1 | C=CCc1cc2c(cc1OC)OCO2 [Asaricin 1, asaricin] | ≤ 7 | ≤ 7 | ≤ 90% | ≤ 80 | ≤ 7 | below 65% | very weak | below 65% | very weak | very weak | 2.07±0.13 | 2.25±0.14 | 2.50±0.14 | ≤ 95 | ≤ 95 | ≤ 95 | % larvae mortality ([2]; ≤ 15 μg/mL): up to 100%; % larvae mortality ([2]; ≤ 15 μg/mL, listed as asaricin 1): 100%; % larvae mortality [3]: up to 100%; % larvae mortality ([3]; listed as asaricin 1): 100%; % repellency ([6]; 300 μg/mL): below 65%
2 | C=CCc1cc(OC)c(OC)cc1OC [Isoasarone 2, isoasarone] | ≤ 7 | ≤ 7 | ≤ 90% | ≤ 80 | ≤ 7 | below 55% | very weak | below 55% | very weak | very weak | 2.41±0.15 | 2.57±0.14 | 2.29±0.13 | ≤ 95 | ≤ 95 | ≤ 95 | mortality at 20 µg/mL ([10]; Aedes aegypti, 48 h, read-out: ovicidal activity (% of egg mortality), 20 μg/mL, 48 hours): 80 to 90%; mortality at 20 µg/mL ([11]; Aedes albopictus, 48 h, read-out: ovicidal activity (% of egg mortality), 20 μg/mL, 48 hours): 80 to 90%; mortality at 20 µg/mL ([12]; Culex quinquefasciatus, 48 h, read-out: ovicidal activity (% of egg mortality), 20 μg/mL, 48 hours): 80 to 90%
3 | C/C=C/c1cc(OC)c(OC)cc1OC [Trans-asarone 3, trans-asarone] |  |  | 5–20% | 5 to 20 |  |  |  |  |  |  | 3.63±0.14 | 2.00±0.16 | 2.46±0.13 |  |  |  | % larvae mortality ([1]; ≤ 9.3 μg/mL): 5–20%; repellent activity (in words) ([4]; in vivo): not significant; repellent activity (in words) ([5]; in vivo): not significant; repellent activity (in words) ([6]; in vivo): not significant; AChE enzyme inhibition IC50 [13]: 17.4(12.6 to 24.4) μg/mL; effect on egg hatchability [10, 16]: no effect; effect on egg hatchability [11, 16]: no effect; effect on egg hatchability [12, 16]: no effect
